Data taken from patent US11767310B2, “Nicotinamide RIPK1 inhibitors” (AbbVie Inc., priority 2021, dated 2023).
Where two headings read alike, the source gives them in different places.

Columns and labels:
PAK4 = PAK4 (Homo sapiens (Human), UniProt O96013); assay: Kinase binding screen; conditions: read-out: Percent Control at 100 nM Compound Concentration
AAK1 = AAK1 (Homo sapiens (Human), UniProt Q2M2I8); assay: Kinase binding screen; conditions: read-out: Percent Control at 100 nM Compound Concentration
CAMK1B = CAMK1B (Homo sapiens (Human), UniProt Q6P2M8); assay: Kinase binding screen; conditions: read-out: Percent Control at 100 nM Compound Concentration
Sequence of CAMK1B (Q6P2M8 whole entry): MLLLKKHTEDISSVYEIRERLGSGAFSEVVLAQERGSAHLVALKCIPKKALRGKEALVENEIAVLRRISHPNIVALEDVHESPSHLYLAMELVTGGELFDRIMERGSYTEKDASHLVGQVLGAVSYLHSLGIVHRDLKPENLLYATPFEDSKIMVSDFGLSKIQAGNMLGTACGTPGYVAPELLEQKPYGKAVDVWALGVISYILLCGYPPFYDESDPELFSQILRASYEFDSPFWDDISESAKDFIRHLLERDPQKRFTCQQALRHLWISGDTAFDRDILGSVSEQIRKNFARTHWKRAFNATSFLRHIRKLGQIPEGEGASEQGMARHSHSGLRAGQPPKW

MELK = MELK (Homo sapiens (Human), UniProt Q14680); assay: Kinase binding screen; conditions: read-out: Percent Control at 100 nM Compound Concentration
EGFR(G719S) = EGFR(G719S) (Homo sapiens (Human), UniProt P00533, G719S); assay: Kinase binding screen; conditions: read-out: Percent Control at 100 nM Compound Concentration
Sequence of EGFR(G719S) (P00533 25-1210 G719S): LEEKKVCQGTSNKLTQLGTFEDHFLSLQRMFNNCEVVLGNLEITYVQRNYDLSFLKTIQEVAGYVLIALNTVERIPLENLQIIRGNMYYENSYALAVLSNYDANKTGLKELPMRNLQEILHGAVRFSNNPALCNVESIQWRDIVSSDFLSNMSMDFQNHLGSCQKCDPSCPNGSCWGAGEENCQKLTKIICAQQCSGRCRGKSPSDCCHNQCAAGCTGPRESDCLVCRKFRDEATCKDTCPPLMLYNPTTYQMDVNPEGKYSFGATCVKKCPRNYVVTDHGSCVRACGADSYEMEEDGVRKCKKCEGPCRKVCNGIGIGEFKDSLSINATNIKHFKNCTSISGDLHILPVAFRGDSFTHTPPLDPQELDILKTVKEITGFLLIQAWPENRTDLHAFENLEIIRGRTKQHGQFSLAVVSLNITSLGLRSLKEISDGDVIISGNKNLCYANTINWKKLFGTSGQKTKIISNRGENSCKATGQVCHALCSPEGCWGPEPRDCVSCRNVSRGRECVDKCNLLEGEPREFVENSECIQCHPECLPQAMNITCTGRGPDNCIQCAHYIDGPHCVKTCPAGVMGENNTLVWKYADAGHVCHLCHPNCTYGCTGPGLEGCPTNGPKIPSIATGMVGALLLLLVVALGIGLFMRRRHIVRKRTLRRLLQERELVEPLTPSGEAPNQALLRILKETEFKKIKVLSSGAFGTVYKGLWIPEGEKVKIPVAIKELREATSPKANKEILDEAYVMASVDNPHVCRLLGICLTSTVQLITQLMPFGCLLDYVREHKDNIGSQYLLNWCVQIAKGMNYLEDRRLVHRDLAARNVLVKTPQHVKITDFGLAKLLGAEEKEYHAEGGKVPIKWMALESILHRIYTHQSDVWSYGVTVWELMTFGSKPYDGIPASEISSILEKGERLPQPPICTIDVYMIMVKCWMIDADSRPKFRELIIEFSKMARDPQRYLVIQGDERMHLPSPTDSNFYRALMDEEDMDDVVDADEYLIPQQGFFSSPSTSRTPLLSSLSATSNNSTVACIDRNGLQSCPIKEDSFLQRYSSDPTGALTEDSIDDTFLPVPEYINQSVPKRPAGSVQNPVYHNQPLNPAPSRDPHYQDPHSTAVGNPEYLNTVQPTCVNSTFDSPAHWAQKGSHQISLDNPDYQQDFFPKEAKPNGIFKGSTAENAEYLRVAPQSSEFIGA

PIP5K1C = PIP5K1C (Homo sapiens (Human), UniProt O60331); assay: Kinase binding screen; conditions: read-out: Percent Control at 100 nM Compound Concentration
Sequence of PIP5K1C (O60331 whole entry): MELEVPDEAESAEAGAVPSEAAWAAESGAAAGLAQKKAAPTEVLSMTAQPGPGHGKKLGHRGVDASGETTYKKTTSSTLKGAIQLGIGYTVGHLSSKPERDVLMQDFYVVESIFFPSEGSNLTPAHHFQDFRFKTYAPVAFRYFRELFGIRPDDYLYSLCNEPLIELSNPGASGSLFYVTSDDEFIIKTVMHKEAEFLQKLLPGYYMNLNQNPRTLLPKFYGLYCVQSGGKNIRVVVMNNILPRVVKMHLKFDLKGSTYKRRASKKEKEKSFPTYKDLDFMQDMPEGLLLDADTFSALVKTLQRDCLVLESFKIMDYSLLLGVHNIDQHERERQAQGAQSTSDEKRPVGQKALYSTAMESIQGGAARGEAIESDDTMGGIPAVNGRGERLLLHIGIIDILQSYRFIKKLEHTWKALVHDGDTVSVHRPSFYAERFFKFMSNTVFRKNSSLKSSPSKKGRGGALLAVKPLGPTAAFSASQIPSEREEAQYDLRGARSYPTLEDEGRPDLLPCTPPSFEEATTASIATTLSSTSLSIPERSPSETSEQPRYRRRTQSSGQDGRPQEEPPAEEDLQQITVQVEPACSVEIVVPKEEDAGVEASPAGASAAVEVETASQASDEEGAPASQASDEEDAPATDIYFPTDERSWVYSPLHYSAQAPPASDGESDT

[1] = target: TYK2(JH2domain-pseudokinase) (Homo sapiens (Human), UniProt P29597); assay: Kinase binding screen; conditions: read-out: Percent Control at 100 nM Compound Concentration
Sequence of TYK2(JH2domain-pseudokinase) (P29597 589-875): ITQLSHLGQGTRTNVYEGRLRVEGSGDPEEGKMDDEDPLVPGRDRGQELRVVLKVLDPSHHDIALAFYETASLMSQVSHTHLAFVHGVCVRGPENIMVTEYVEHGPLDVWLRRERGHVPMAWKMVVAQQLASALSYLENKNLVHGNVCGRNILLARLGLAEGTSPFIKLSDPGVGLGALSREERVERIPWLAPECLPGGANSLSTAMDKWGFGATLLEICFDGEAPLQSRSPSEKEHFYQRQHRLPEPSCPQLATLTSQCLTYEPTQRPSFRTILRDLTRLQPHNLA

TEC = TEC (Homo sapiens (Human), UniProt P42680); assay: Kinase binding screen; conditions: read-out: Percent Control at 100 nM Compound Concentration
Sequence of TEC (P42680 whole entry): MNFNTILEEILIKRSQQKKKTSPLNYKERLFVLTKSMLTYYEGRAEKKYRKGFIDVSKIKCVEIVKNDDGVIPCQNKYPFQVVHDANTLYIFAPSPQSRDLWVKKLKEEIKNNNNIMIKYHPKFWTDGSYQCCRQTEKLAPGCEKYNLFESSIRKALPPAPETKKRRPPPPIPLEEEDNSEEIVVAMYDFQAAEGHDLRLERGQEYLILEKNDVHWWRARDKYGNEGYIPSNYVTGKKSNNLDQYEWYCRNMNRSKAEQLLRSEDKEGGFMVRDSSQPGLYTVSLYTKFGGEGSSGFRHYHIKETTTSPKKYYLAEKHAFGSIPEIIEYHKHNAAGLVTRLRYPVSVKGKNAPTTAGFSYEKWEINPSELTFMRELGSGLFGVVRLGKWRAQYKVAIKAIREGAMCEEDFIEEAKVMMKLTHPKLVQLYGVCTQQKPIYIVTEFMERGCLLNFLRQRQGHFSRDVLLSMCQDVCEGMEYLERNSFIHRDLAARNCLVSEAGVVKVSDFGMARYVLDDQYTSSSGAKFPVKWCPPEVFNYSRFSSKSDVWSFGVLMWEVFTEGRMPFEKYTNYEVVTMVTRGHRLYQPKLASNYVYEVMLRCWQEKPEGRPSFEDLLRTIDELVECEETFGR

LIMK2 = LIMK2 (Homo sapiens (Human), UniProt P53671); assay: Kinase binding screen; conditions: read-out: Percent Control at 100 nM Compound Concentration
DLK = DLK (Homo sapiens (Human), UniProt Q12852); assay: Kinase binding screen; conditions: read-out: Percent Control at 100 nM Compound Concentration
Sequence of DLK (Q12852 whole entry): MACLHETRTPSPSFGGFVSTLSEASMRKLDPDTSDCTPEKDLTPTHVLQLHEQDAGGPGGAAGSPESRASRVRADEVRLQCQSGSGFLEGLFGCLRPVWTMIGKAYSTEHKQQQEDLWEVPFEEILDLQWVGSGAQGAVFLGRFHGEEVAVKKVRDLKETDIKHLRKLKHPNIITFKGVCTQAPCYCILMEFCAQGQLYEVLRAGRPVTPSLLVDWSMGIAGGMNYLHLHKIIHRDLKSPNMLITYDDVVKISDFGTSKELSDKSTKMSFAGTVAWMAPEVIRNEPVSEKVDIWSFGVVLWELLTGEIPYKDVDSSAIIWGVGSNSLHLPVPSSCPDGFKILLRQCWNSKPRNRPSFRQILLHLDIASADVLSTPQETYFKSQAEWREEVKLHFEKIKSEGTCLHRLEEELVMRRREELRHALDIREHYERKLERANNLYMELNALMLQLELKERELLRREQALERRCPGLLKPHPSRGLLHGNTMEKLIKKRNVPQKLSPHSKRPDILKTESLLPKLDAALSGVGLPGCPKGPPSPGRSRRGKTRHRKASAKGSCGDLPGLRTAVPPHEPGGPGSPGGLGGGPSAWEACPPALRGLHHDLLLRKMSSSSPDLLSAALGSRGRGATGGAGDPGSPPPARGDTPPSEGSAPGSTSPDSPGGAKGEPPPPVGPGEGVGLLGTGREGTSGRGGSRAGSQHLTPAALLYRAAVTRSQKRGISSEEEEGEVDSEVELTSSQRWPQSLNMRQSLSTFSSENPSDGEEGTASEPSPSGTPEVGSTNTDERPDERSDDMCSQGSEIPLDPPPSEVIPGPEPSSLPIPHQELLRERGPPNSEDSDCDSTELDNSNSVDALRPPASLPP

JNK3 = JNK3 (Homo sapiens (Human), UniProt P53779); assay: Kinase binding screen; conditions: read-out: Percent Control at 100 nM Compound Concentration
Sequence of JNK3 (P53779 whole entry): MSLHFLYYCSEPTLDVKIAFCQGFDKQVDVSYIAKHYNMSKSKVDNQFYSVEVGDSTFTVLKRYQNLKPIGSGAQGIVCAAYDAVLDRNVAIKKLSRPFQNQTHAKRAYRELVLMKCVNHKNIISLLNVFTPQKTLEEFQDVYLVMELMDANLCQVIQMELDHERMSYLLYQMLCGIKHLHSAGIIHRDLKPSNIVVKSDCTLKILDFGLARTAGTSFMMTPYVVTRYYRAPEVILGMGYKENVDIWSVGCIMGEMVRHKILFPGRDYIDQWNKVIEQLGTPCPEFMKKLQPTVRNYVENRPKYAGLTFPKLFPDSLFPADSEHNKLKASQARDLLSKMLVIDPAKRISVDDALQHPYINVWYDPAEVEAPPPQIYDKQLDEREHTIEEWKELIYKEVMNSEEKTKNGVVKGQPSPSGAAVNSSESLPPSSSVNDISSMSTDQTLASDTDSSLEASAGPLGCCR

CDK11 = CDK11 (Homo sapiens (Human), UniProt Q9BWU1); assay: Kinase binding screen; conditions: read-out: Percent Control at 100 nM Compound Concentration
U937 cells = assay: U937 TNF/zVAD Cytotoxicity Cell Assay; type: cell-based; conditions: Homo sapiens, U-937; TNFα 10 ng/mL + Z-VAD FMK 20 μM, 16-20 hours; read-out: U937 TNF/zVAD Induced Cytotoxicity IC50
Procedure: Compounds were tested for their ability to prevent TNF induced necroptosis in U937 cells. Treatment with TNF and the caspase inhibitor zVAD-FMK results in the activation and phosphorylation of RIPK1 and subsequent phosphorylation of RIPK3 and MLKL (Mixed Lineage Kinase Domain Like Pseudokinase), leading to induction of necroptotic cell death that is measured as a reduction in cell viability. Similar U937 assay protocols have been previously described; see, e.g., Harris et al., ACS Med. Chem. Letters (2013) 4:1238-1243 and Supplementary Information.
Test compounds were solvated in dimethyl sulfoxide (DMSO) and 3-fold serially diluted from 10 uM to 0.0005 uM with technical duplicates into an empty 384 well plate. U937 cells were resuspended at a concentration of 500,000 cells/mL in fresh RPMI (Roswell Park Memorial Institute) 1640 growth medium containing 10% heat inactivated fetal bovine serum (FB1S) and seeded into a 384 well plate containing compounds and incubated for 1 hour at 37° C. Following incubation, the cells were challenged with TNFα (final concentration of 10 ng/mL) and Z-VAD FMK (N-Benzyloxycarbonyl-Val-Ala-Asp(O-Me) fluoromethyl ketone; final concentration of 20 μM) for 16-20 hours at 37° C. Following the incubation with TNFα/Z-VAD, cells were lysed with Cell Titer-Glo and incubated for 5-10 minutes. The plate was then read on an Envision plate reader. Data was normalized and analyzed with Studies from Dotmatics.

FLT3(D835Y) = FLT3(D835Y) (Homo sapiens (Human), UniProt P36888, D835Y); assay: Kinase binding screen; conditions: read-out: Percent Control at 100 nM Compound Concentration
CAMK1G = CAMK1G (Homo sapiens (Human), UniProt Q96NX5); assay: Kinase binding screen; conditions: read-out: Percent Control at 100 nM Compound Concentration
FLT3(D835H) = FLT3(D835H) (Homo sapiens (Human), UniProt P36888, D835H); assay: Kinase binding screen; conditions: read-out: Percent Control at 100 nM Compound Concentration
MERTK = MERTK (Homo sapiens (Human), UniProt Q12866); assay: Kinase binding screen; conditions: read-out: Percent Control at 100 nM Compound Concentration
EPHB2 = EPHB2 (Homo sapiens (Human), UniProt P29323); assay: Kinase binding screen; conditions: read-out: Percent Control at 100 nM Compound Concentration
[2] = target: ABL1(Q252H)-nonphosphorylated (Homo sapiens (Human), UniProt P00519, Q252H); assay: Kinase binding screen; conditions: read-out: Percent Control at 100 nM Compound Concentration
PDPK1 = PDPK1 (Homo sapiens (Human), UniProt O15530); assay: Kinase binding screen; conditions: read-out: Percent Control at 100 nM Compound Concentration
Sequence of PDPK1 (O15530 whole entry): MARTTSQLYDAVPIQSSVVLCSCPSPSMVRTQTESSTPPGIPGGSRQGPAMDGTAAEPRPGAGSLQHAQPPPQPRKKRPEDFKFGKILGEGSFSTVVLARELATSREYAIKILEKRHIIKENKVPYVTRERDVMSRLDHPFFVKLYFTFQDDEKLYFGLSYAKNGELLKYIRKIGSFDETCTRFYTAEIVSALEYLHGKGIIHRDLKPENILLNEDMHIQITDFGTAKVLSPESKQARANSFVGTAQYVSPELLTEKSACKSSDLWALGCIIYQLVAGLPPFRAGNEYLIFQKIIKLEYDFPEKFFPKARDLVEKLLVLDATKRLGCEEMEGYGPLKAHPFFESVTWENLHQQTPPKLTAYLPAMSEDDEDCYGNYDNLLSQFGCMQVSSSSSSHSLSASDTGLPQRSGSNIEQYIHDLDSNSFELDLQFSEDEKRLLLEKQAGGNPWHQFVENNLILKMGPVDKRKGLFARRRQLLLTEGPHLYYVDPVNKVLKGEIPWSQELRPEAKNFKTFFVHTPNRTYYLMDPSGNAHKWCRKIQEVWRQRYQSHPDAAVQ

FLT3(ITD,D835V) = assay: Kinase binding screen; design: species or system human
DAPK3 = DAPK3 (Homo sapiens (Human), UniProt O43293); assay: Kinase binding screen; conditions: read-out: Percent Control at 100 nM Compound Concentration

`CN(C[C@@H](O)Cc1ccccc1)C(=O)c1cncc(C#Cc2cnn(C(F)F)c2)c1` [Example 2, (S)-5-((1-(difluoromethyl)-1H-pyrazol-4-yl)ethynyl)-N-(2-hydroxy-3-phenylpropyl)-N-methylnicotinamide] gave a remaining activity at 0.1 µM (PAK4; PAK4) of 98%, a remaining activity at 0.1 µM (AAK1; AAK1) of 96% and a remaining activity at 0.1 µM (CAMK1B; CAMK1B) of 82%. For the same compound, the remaining activity at 0.1 µM (MELK; MELK) was 77%, the remaining activity at 0.1 µM (EGFR(G719S); EGFR(G719S)) was 100% and the remaining activity at 0.1 µM (PIP5K1C; PIP5K1C) was 100%. For the same compound, the remaining activity at 0.1 µM ([1]; TYK2(JH2domain-pseudokinase)) was 100%, the remaining activity at 0.1 µM (TEC; TEC) was 99% and the remaining activity at 0.1 µM (LIMK2; LIMK2) was 95%. The remaining activity at 0.1 µM (DLK; DLK) was 100%, the remaining activity at 0.1 µM (JNK3; JNK3) was 83% and the remaining activity at 0.1 µM (CDK11; CDK11) was 4.8%. It also gave an IC50 (U937 cells) of 11 nM, a remaining activity at 0.1 µM (FLT3(D835Y); FLT3(D835Y)) of 100% and a remaining activity at 0.1 µM (CAMK1G; CAMK1G) of 93%. For the same compound, the remaining activity at 0.1 µM (FLT3(D835H); FLT3(D835H)) was 100%, the remaining activity at 0.1 µM (MERTK; MERTK) was 100% and the remaining activity at 0.1 µM (EPHB2; EPHB2) was 100%. The remaining activity at 0.1 µM ([2]; ABL1(Q252H)-nonphosphorylated) was 92%, the remaining activity at 0.1 µM (PDPK1; PDPK1) was 99% and the “Percent Control at 100 nM Compound Concentration” value (FLT3(ITD,D835V)) was 100%. It also gave a remaining activity at 0.1 µM (DAPK3; DAPK3) of 100%.
`CN(C[C@H](Cc1ccccc1)OP(=O)(O)O)C(=O)c1cncc(C#Cc2cnn(C(F)F)c2)c1` [Example 19, (S)-1-(5-((1-(difluoromethyl)-1H-pyrazol-4-yl)ethynyl)-N-methylnicotinamido)-3-phenylpropan-2-yl dihydrogen phosphate] gave a remaining activity at 0.1 µM (PAK4) of 98%, a remaining activity at 0.1 µM (AAK1) of 100% and a remaining activity at 0.1 µM (CAMK1B) of 83%. It also gave a remaining activity at 0.1 µM (MELK) of 83%, a remaining activity at 0.1 µM (EGFR(G719S)) of 72% and a remaining activity at 0.1 µM (PIP5K1C) of 85%. The remaining activity at 0.1 µM [1] was 90%, the remaining activity at 0.1 µM (TEC) was 93% and the remaining activity at 0.1 µM (LIMK2) was 93%. For the same compound, the remaining activity at 0.1 µM (DLK) was 100%, the remaining activity at 0.1 µM (JNK3) was 86% and the remaining activity at 0.1 µM (CDK11) was 92%. The remaining activity at 0.1 µM (FLT3(D835Y)) was 100%, the remaining activity at 0.1 µM (CAMK1G) was 100% and the remaining activity at 0.1 µM (FLT3(D835H)) was 100%. For the same compound, the remaining activity at 0.1 µM (MERTK) was 100%, the remaining activity at 0.1 µM (EPHB2) was 100% and the remaining activity at 0.1 µM [2] was 100%. The remaining activity at 0.1 µM (PDPK1) was 100%, the “Percent Control at 100 nM Compound Concentration” value (FLT3(ITD,D835V)) was 100% and the remaining activity at 0.1 µM (DAPK3) was 97%.
